Consider seven compounds from article PMC7232187, “High-Throughput Screening of the ReFRAME Library Identifies Potential Drug Repurposing Candidates for Trypanosoma cruzi” (Microorganisms, 2020).

Read-outs that look alike come from different tables or passages of the source. A value given as a limit tells only on which side of the number the result lay.

In data set [1] the test system is CA-I/72 T. cruzi. Description: Phenotypic high-content imaging assay, intracellular T. cruzi amastigotes in C2C12 host cells. The data set is classed as cell-based, Trypanosoma cruzi. The settings on record: for Selectivity Index (SI): SI = CC50 (C2C12) / EC50 (T. cruzi CA-I/72); for EC50: Trypanosoma cruzi, read-out: EC50 CA-I/72 T. cruzi.
Protocol: C2C12 mouse myoblasts (ATCC CRL-1772) and CA-I/72 T. cruzi (kindly donated by J. Dvorak, NIH) were cultured in Dulbecco’s Modified Eagle Medium (Invitrogen, Carlsbad, CA, USA), supplemented with 5% fetal bovine serum (Sigma Aldrich, St. Louis, MO, USA) and 1% penicillin-streptomycin (Invitrogen, Carlsbad, CA, USA) at 37 °C and 5% CO2 essentially as described [11]. Passaging of CA-I/72 T. cruzi was conducted weekly via co-culture with C2C12 host cells.
Compounds from the ReFRAME library, benznidazole (Sigma Alderich, St. Louis, MO, USA) and DMSO (Sigma Alderich, St. Louis, MO, USA), were transferred to black 1536-well plates (Greiner Bio One, Kremsmünster, Austria) with clear bottoms using an Acoustic Transfer System (ATS) instrument (EDC Biosystems, Fremont, CA, USA). C2C12 cells were seeded at a density of 100 cells per well, and CA-I/72 T. cruzi parasites were seeded at a density of 1500 cells per well, using a Multidrop Combi liquid handler (Thermo Scientific, Waltham, MA, USA). Plates were incubated at 37 °C and 5% CO2 for 72 h in humidified trays to reduce edge effect. Following this incubation, paraformaldehyde (4% final concentration) in 1× phosphate buffered saline (PBS, Invitrogen, 10010023) was used to fix the cells for 1 h. The cells were then subsequently treated with 5 µg/mL DAPI staining solution (Sigma Aldrich, D9542) for 1 h. Next, the plates were imaged using an ImageXpress Micro XLS automated high-content imager (Molecular Devices, San Jose, CA, USA), using the 10× fluorescence objective. Images were analyzed automatically using a custom image analysis module [9, 11].
Compounds from the ReFRAME library were pre-spotted on 1536 clear-bottom black well plates in 100% dimethylsulfoxide (DMSO) for a final concentration of 10 µM in 10 µL final volume (and 0.1% DMSO final concentration). C2C12 mouse myoblasts and CA-I/72 strain T. cruzi trypomastigotes were added to the plate in a 1:15 infection ratio and incubated for 72 h at 37 °C and 5% CO2. Cells were then fixed with 4% paraformaldehyde (final concentration), and stained with 5 µg/mL of 4’,6-diamidino-2-phenylindole (DAPI) to highlight the nuclei from the host cells and parasites. Using an ImageXpress Micro XLS automated microscope (10× magnification setting), fluorescence images of C2C12 and T. cruzi amastigote nuclei were acquired for each well, and the number of host cell nuclei and amastigote nuclei were automatically determined using a custom image analysis module as previously described [9, 10, 11] […] Parasite amastigote nuclei were selectively counted over trypomastigote nuclei, via distance gating of parasitic nuclei distance from host cell nuclei in the microscopy images.
Data set [2] can be described thus: Host cell toxicity by nuclei counting in the phenotypic high-content imaging assay. The following applies: mouse. The procedure:
C2C12 mouse myoblasts (ATCC CRL-1772) and CA-I/72 T. cruzi (kindly donated by J. Dvorak, NIH) were cultured in Dulbecco’s Modified Eagle Medium (Invitrogen, Carlsbad, CA, USA), supplemented with 5% fetal bovine serum (Sigma Aldrich, St. Louis, MO, USA) and 1% penicillin-streptomycin (Invitrogen, Carlsbad, CA, USA) at 37 °C and 5% CO2 essentially as described. Passaging of CA-I/72 T. cruzi was conducted weekly via co-culture with C2C12 host cells.
Compounds from the ReFRAME library, benznidazole (Sigma Alderich, St. Louis, MO, USA) and DMSO (Sigma Alderich, St. Louis, MO, USA), were transferred to black 1536-well plates (Greiner Bio One, Kremsmünster, Austria) with clear bottoms using an Acoustic Transfer System (ATS) instrument (EDC Biosystems, Fremont, CA, USA). C2C12 cells were seeded at a density of 100 cells per well, and CA-I/72 T. cruzi parasites were seeded at a density of 1500 cells per well, using a Multidrop Combi liquid handler (Thermo Scientific, Waltham, MA, USA). Plates were incubated at 37 °C and 5% CO2 for 72 h in humidified trays to reduce edge effect. Following this incubation, paraformaldehyde (4% final concentration) in 1× phosphate buffered saline (PBS, Invitrogen, 10010023) was used to fix the cells for 1 h. The cells were then subsequently treated with 5 µg/mL DAPI staining solution (Sigma Aldrich, D9542) for 1 h. Next, the plates were imaged using an ImageXpress Micro XLS automated high-content imager (Molecular Devices, San Jose, CA, USA), using the 10× fluorescence objective. Images were analyzed automatically using a custom image analysis module.
Compounds from the ReFRAME library were pre-spotted on 1536 clear-bottom black well plates in 100% dimethylsulfoxide (DMSO) for a final concentration of 10 µM in 10 µL final volume (and 0.1% DMSO final concentration). C2C12 mouse myoblasts and CA-I/72 strain T. cruzi trypomastigotes were added to the plate in a 1:15 infection ratio and incubated for 72 h at 37 °C and 5% CO2. Cells were then fixed with 4% paraformaldehyde (final concentration), and stained with 5 µg/mL of 4’,6-diamidino-2-phenylindole (DAPI) to highlight the nuclei from the host cells and parasites. Using an ImageXpress Micro XLS automated microscope (10× magnification setting), fluorescence images of C2C12 and T. cruzi amastigote nuclei were acquired for each well, and the number of host cell nuclei and amastigote nuclei were automatically determined using a custom image analysis module as previously described (Figure 1). Parasite amastigote nuclei were selectively counted over trypomastigote nuclei, via distance gating of parasitic nuclei distance from host cell nuclei in the microscopy images.
Infection levels were calculated as a ratio of the number of T. cruzi amastigotes per C2C12 host cell, as determined by nuclei counting. Compound toxicity was determined by dividing the number of host cell nuclei in a drug-treated well by the average of the vehicle controls. For both infection ratios and cell viability ratios, values were normalized to the vehicle controls to determine percent activity and toxicity, respectively. Control wells containing uninfected C2C12 cells, infected C2C12 cells with 0.1% DMSO, and infected C2C12 cells with 0.1% DMSO and 50 µM benznidazole were prepared in each plate for data normalization. […] Hit selection cutoffs for the primary screen were set at 70% antiparasitic activity (70% parasite reduction compared to untreated controls) and 50% host cell viability at 10 µM compound compared to untreated controls (represents approximately three standard deviations from the average of the untreated controls).

Where [3] appears, read: intracellular amastigotes in C2C12, 72 h, 10-point 3-fold dose response in duplicate, +/- SE.
[4] abbreviates: C2C12 mouse myoblasts co-cultured with CA-I/72 T. cruzi.

In the case of `COc1ccccc1N1CCN(CCCCn2c(=O)sc3cc(CCN4CCC(C(=O)c5ccc(F)cc5)CC4)ccc32)CC1` [3-[4-[4-(2-Methoxyphenyl)piperazine-1-yl]butyl]-6-[2-[4-(4-fluorobenzoyl)piperidine-1-yl]ethyl]benzothiazole-2(3H)-one], in data set [1], the “Selectivity Index (SI)” value amounted to 145. For the same compound, in data set [1] (setting [3]), the EC50 turned out to be 22 nM. For the same compound, the CC50 at 72 h in data set [2] (setting [4]) is 3190 nM.

In the case of `C=C(NNC(=S)NNC(=S)Nc1ccccc1Cl)c1ccccn1` [348U87, 2-acetylpyridine 5-[(2-chloroanilino)-thiocarbonyl]-thiocarbonohydrazone], the “Selectivity Index (SI)” value in data set [1] turned out to be 1294. The EC50 in data set [1] (setting [3]) came out at 0.63 nM. The CC50 at 72 h in data set [2] (setting [4]) was determined as 815 nM.

Regarding `C=CC(=O)N1CC[C@@H](Oc2nc(Nc3ccc(N4CCC(N5CCN(C)CC5)CC4)cc3)c(C(N)=O)nc2CC)C1` [ASP-8273, naquotinib], the “Selectivity Index (SI)” value in data set [1] was determined as 191. The EC50 in data set [1] (setting [3]) is 2.7 nM. Also, the CC50 at 72 h in data set [2] (setting [4]) came out at 515 nM.

`O=P(O)(O)C(NC1CCCCCC1)P(=O)(O)O` [Incadronate Disodium, incadronate disodium]: the “Selectivity Index (SI)” value in data set [1] is recorded as above 20. Besides, the EC50 in data set [1] (setting [3]) is 480 nM. The compound also yielded a CC50 at 72 h in data set [2] above 10000 nM.

For `COc1cc2c3c(n(CCCNCCO)c(=O)c2cc1OC)-c1cc2c(cc1C3=O)OCO2` [NSC-706744], in data set [1], the “Selectivity Index (SI)” value turned out to be 214. In addition, the EC50 in data set [1] (C2C12, 72 h) came out at 0.44 nM. In addition, the CC50 at 72 h in data set [2] was 94 nM.

`N#Cc1ccc(Cn2cncc2CN2CCN(c3cccc(Cl)c3)C(=O)C2)cc1Oc1ccccc1` [Prenyl-IN-1]: the “Selectivity Index (SI)” value in data set [1] stood at 10. Further, in data set [1] (setting [3]), the EC50 amounted to 18 nM. Also, the CC50 at 72 h in data set [2] (setting [4]) came out at 182 nM.

In the case of `Cc1cccc2nc3cccc(C(=O)NCCNCCNCCNC(=O)c4cccc5nc6cccc(C)c6nc45)c3nc12` [XR 5944], in data set [1], the “Selectivity Index (SI)” value was 13. In data set [1] (setting [3]), the EC50 worked out at 3.5 nM. Further, in data set [2] (setting [4]), the CC50 at 72 h is 46 nM.
